This data set can be described thus: xn = mol fraction of the nth substance listed.

± gives the uncertainty stated by the source.

In turn, `O=S(=O)([N-]S(=O)(=O)C(F)(F)F)C(F)(F)F.[Na+]` + CCCC[N+]1(C)CCCC1.O=S(=O)([N-]S(=O)(=O)C(F)(F)F)C(F)(F)F yielded an electrical conductivity (280.2 K, 100 kPa, x1 = 0.24) of 0.013 ± 0.001 S/m; an electrical conductivity (338.7 K, 100 kPa, x1 = 0.24) of 0.409 ± 0.025 S/m; an electrical conductivity (347.4 K, 100 kPa, x1 = 0.24) of 0.521 ± 0.031 S/m; an electrical conductivity (400.6 K, 100 kPa, x1 = 0.24) of 1.83 ± 0.11 S/m.
The term viscosity denotes the internal friction of a fluid under shear. Low readings indicate easy flow, high ones sluggish flow. `O=C1CCCO1` + COCCn1cc[n+](C)c1.N#C[S-] yielded a viscosity (313.15 K, 101 kPa, x2 = 0) of 1.38 ± 0.28 mPa·s.
Consider `CC(C)O` + CCCCCC[n+]1ccn(C)c1.O=S(=O)([O-])C(F)(F)F, for which the viscosity reads like this: (298.15 K, 100 kPa, x1 = 1) 2.05 ± 0.21 mPa·s; (308.15 K, 100 kPa, x1 = 1) 1.49 ± 0.15 mPa·s.
The molecule `CCCCCCCC[n+]1ccn(C)c1.F[P-](F)(F)(F)(F)F` + O showed a viscosity (293.15 K, 101 kPa, x2 = 0.212) of 500 ± 93 mPa·s. This molecule also yielded an electrical conductivity (295.15 K, 101 kPa, x2 = 0.212) of 0.12 ± 0.02 S/m.

For the origin of these results see the CheMixHub ionic liquid set.
